Ends that are not written are not given here.
Columns and labels:
THP-1 macrophages [1] = test: ROS generation in MSU-stimulated THP-1 macrophages (flow cytometry); type: cell-based, human; conditions: 10 and 25 μM, 24 h, then MSU 100 μg/mL 6 h; vs MSU alone
Procedure: (§1) THP-1 macrophages (500,000 cells per well) were treated with MSU crystals (100 μg/mL) for 2, 4, and 6 h. ROS staining solution (1:1000 ratio) was added to the wells and incubated for 1 h. Subsequently, cells were collected, washed, and cell-associated fluorescence was determined using flow cytometry. Media were collected at 2, 4, and 6 h, and IL-8 media concentrations were determined by ELISA. […] Subsequently, cells were treated with MSU crystals (100 μg/mL) for 6 h. ROS generation and IL-8 concentrations were determined as described above.

THP-1 macrophages [2] = test: MSU crystal phagocytosis by THP-1 macrophages (flow cytometry side-scatter, % cells in P2 region); type: cell-based, human
Procedure: THP-1 macrophages (500,000 cells per well) were treated with MSU crystals (100 μg/mL) ± HA (100 μg/mL) for 4 h. Subsequently, macrophages were collected, pelleted, and washed with PBS. MSU phagocytosis was determined by analyzing the change in cell side-scatter using a flow cytometer. Two regions of interest were identified: the P1 region representing the THP-1 macrophage population in the absence of MSU crystal exposure and the P2 region with increased cell side scatter indicative of MSU phagocytosis. Data are presented as the percentage of cells in the P2 region across different experimental groups.
Subsequently, cells were treated with MSU crystals (100 μg/mL) for 4 h. MSU phagocytosis by THP-1 macrophages was determined using flow cytometry as described above.

THP-1 macrophages [3] = test: IL-8 secretion by MSU-stimulated THP-1 macrophages (ELISA); type: cell-based, human; conditions: 1, 10 and 25 μM, 24 h, then MSU 100 μg/mL 6 h; vs MSU alone
Procedure: as §1

THP-1 macrophages [4] = test: Cytotoxicity against THP-1 macrophages (Cell Counting Kit-8); conditions: 24 h, CCK-8; for cytotoxic effect against THP-1 macrophages (in words): 1, 10 and 25 μM, three independent experiments
Procedure: Subsequently, 10 μL of CCK-8 solution was added to each well and absorbance was measured 90 min later at 450 nm. Cytotoxicity was expressed as the percentage of viable cells following treatments.

[5] = target: T1, recombinant human CD44 receptor (Homo sapiens, UniProt P16070); test: ELISA binding of coated P6 peptide or HA to CD44-IgG Fc fusion protein; conditions: for binding to the CD44 receptor (ELISA absorbance at 450 nm): wells coated 1 ng/mL to 1 μg/mL, CD44-IgG Fc 0.1 µg/mL, 1 h room temperature, three independent experiments
T1 construct: purchased R&D Systems
Procedure: Wells of high-binding microtiter plates were coated with either the P6 peptide or high molecular weight HA (molecular weight >1 million Da) in serial concentrations between 1 ng/mL and 1 μg/mL overnight in phosphate buffered saline (PBS) (100 µL per well) at 4 °C. […] CD44-IgG Fc fusion protein (R&D Systems) (0.1 µg/mL) in PBS + 0.05% Tween 20 (100 µL per well) was added to both coated and uncoated wells and incubated for 1 h at room temperature. Following washing with PBS + 0.1% Tween 20, anti-human IgG Fc-HRP (1:1000) was added and incubated at room temperature for 1 h, followed by washing three times with PBS + 0.05% Tween 20. Turbo TMB-ELISA substrate solution was added (100 µL per well), and absorbance intensity was determined at 450 nm. Absorbance values in the […] to adjust for any non-specific binding by CD44-IgFc.

[6] = tested on: CD44 receptor on THP-1 macrophages; test: CD44 surface expression on THP-1 macrophages under conditions of inflammation (flow cytometry); type: cell-based, human; conditions: 24 h, serum-free medium
Procedure: THP-1 monocytes were cultured in RPMI 1640 medium supplemented with 10% heat-inactivated FBS, 10 mM HEPES, 2 mM glutamine, 100 U/I penicillin, and 100 μg/mL streptomycin and maintained at 37 °C and 5% CO2. THP-1 monocytes were differentiated into THP-1 macrophages using 50 ng/mL phorbol-12-myristate 13-acetate (PMA) for 24 h. Subsequently, adherent cells were washed twice with serum-free medium and rested for another 24 h in PMA-free RPMI + 10% FBS medium. CD44 expression on THP-1 macrophages was conducted using flow cytometry following incubation with the CD44-specific antibody (1:1000 dilution) for 1 h followed by cell pelleting and washing the cell pellet with PBS. THP-1 macrophages were then incubated with DyLight 488 goat anti-mouse IgG at 1:1000 dilution for 30 min. […] THP-1 macrophages were washed with PBS, collected, and CD44 expression was determined using flow cytometry as described above.

in vitro = conditions: human, cerebrospinal or other body fluid
Procedure: Using seven microcentrifuge tubes, a total of 50 μL of normal SF was diluted with 150 μL of PBS in each tube. Following equilibrating diluted SF to 37 ± 1 °C for 15 min, 50 μL of peptide stock solution (1 mM solution in 100% sterile water) was added to each tube. Next, at different time intervals (0, 1, 2, 3, 4, 6, and 24 h), an aliquot of the reaction solution (100 μL) was sampled. Cold methanol (200 μL) was added to each aliquot in order to precipitate proteins that were present in the SF. This was followed by cooling the solution to 4 °C for 15 min followed by centrifugation at 500 g for 15 min to precipitate SF proteins. To determine the proteolytic stability of the P6 peptide, the supernatant was injected into an analytical RP-HPLC C18 column. In order to measure the concentration of the P6 peptide isolated from SF, the area under the curve (AUC) of the P6 peptide at each time point was estimated using an average of four runs, and normalized to AUC values at time 0 and expressed as the percentage of AUC at time 0.

T1 sequence (P16070 with tags, fused parts or gaps limits assumed): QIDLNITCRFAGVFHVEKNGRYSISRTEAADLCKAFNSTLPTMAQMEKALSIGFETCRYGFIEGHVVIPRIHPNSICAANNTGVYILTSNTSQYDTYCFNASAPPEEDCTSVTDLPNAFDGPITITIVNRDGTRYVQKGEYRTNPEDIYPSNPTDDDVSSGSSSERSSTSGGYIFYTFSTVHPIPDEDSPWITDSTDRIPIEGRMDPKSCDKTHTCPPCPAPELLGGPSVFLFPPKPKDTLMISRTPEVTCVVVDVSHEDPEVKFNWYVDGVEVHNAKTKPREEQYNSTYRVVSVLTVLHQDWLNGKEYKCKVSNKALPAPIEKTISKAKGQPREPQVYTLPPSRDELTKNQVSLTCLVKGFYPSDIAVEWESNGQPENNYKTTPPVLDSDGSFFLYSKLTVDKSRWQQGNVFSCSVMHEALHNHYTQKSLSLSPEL

## COc1cc2c(c(OC)c1OC)-c1ccc(OC)c(=O)cc1[C@@H](NC(C)=O)CC2 [colchicine]
THP-1 macrophages [1]
  ROS generation: reduced
THP-1 macrophages [2]; 1, 10 and 25 μM, 24 h pre-treatment, then MSU 100 μg/mL 4 h, vs MSU alone
  MSU phagocytosis by THP-1 macrophages: reduced MSU phagocytosis
THP-1 macrophages [3]
  IL-8 secretion: reduced
THP-1 macrophages [4]; 1 μM
  reduction of macrophage cell viability: approximately 50%
THP-1 macrophages [4]; 25 μM
  reduction of macrophage cell viability: approximately 80%
THP-1 macrophages [4]
  cytotoxic effect against THP-1 macrophages (in words): dose-dependent cytotoxic effect

## hyaluronic acid [HA]
[5]
  binding to the CD44 receptor (ELISA absorbance at 450 nm): concentration-dependent binding
THP-1 macrophages [2]; 100 μg/mL co-treatment with MSU 100 μg/mL for 4 h
  MSU phagocytosis by THP-1 macrophages: significantly reduced MSU phagocytosis

## O=c1[nH]c(=O)c2[nH]c(=O)[nH]c2[nH]1 [UA, uric acid]
[6]; UA 10 mg/dL
  enhancement in cell surface CD44 protein staining compared to untreated control macrophages: approximately 3 fold

## IL-1β: recombinant human IL-1β, proinflammatory cytokine
[6]; IL-1β 10 ng/mL
  enhancement in cell surface CD44 protein staining compared to untreated control macrophages: approximately two-fold

## WYKGDKFLYLQNGIEAIADF-NH2 [P6 peptide]
THP-1 macrophages [1]
  ROS generation: reduced
In vitro
  half-life at 200 μM: ~4 h
[5]; across all coating concentrations 1 ng/mL to 1 μg/mL
  difference between P6 peptide and HA binding to CD44: no significant difference
[5]
  binding to the CD44 receptor (ELISA absorbance at 450 nm): concentration-dependent binding
THP-1 macrophages [2]; 10 and 25 μM, 24 h pre-treatment, then MSU 100 μg/mL 4 h, vs MSU alone
  MSU phagocytosis by THP-1 macrophages: significantly reduced MSU phagocytosis
THP-1 macrophages [3]
  IL-8 secretion: reduced
THP-1 macrophages [4]
  cytotoxic effect against THP-1 macrophages (in words): no cytotoxic effect

— publication PMC6982808, “Design and Biological Evaluation of Colchicine-CD44-Targeted Peptide Conjugate in an In Vitro Model of Crystal Induced Inflammation” (Molecules, 2019)
